Measured values published in paper PMC6009867, “Microwave-assisted synthesis and bioevaluation of new sulfonamides” (Journal of Enzyme Inhibition and Medicinal Chemistry, 2017).

Columns and labels:
[1] = system: Ca9-22 (human oral squamous cell carcinoma, gingiva); assay: Cytotoxicity assay (MTT), Ca9-22 cells; assay type: cell-based; conditions: for TS (C/A): CC50 HGF / CC50 Ca9-22; for CC50: Homo sapiens, Ca9-22, 48 h, MTT, triplicate wells; for SI Ca9-22: average CC50 of nonmalignant cells / CC50 toward Ca9-22; for times of potency versus 5-FU toward Ca9-22: CC50 ratio to reference 5-FU
Procedure: (§1) The cytotoxicity of the compounds were assayed toward human oral squamous cell carcinoma cell lines derived from gingiva tissue (CA9–22) and tongue (HSC-2, HSC-3, HSC-4), and human normal oral cells (gingival fibroblasts, HGF; periodontal ligament fibroblasts, HPLF; pulp cells, HPC) with some minor modifications[16]^,[17]^,[26]^,[30–33]. In brief, cells were cultured in DMEM supplemented with 10% fetal bovine serum (FBS). Cells (2.5 × 10^3 cells/well) were inoculated and incubated for 48 h to achieve complete adherence. Near confluent cells were incubated for a further 48 h in the fresh culture medium containing each test compound (3.12, 6.25, 12.5, 25, 50, 100, 200, 400 μM) or 5-FU (positive control) (7.8, 15.6, 31.2, 62.5, 125, 250, 500, 1000 μM). The viable cell numbers were determined by the MTT method. Cytotoxicity induced by DMSO (0.0078, 0.0156, 0.03125, 0.0625, 0.125, 0.25, 0.5 or 1%) was subtracted from each well. The CC50 values were determined from the dose-response curves. The tumor selectivity (TS) was calculated by the following equation: TS = mean CC50 against normal cells/mean CC50 against cancer cells [shown as (D/B) or (C/A) in Table 1]. A potency selectivity expression (PSE) was calculated by multiplying the reciprocal of average CC50 values toward cancer cell lines and the average SI values toward these cell lines and expressed as a percentage [PSE = (D/B^2) × 100].

[2] = system: HSC-2 (human oral squamous cell carcinoma, tongue); assay: Cytotoxicity assay (MTT), HSC-2 cells; assay type: cell-based; conditions: for CC50: Homo sapiens, HSC-2, 48 h, MTT; for SI HSC-2: average CC50 of nonmalignant cells / CC50 toward HSC-2; for times of potency versus 5-FU toward HSC-2: CC50 ratio to reference 5-FU
Procedure: as §1

[3] = system: HSC-3 (human oral squamous cell carcinoma, tongue); assay: Cytotoxicity assay (MTT), HSC-3 cells; assay type: cell-based; conditions: for CC50: Homo sapiens, HSC-3, 48 h, MTT; for SI HSC-3: average CC50 of nonmalignant cells / CC50 toward HSC-3
Procedure: as §1

[4] = system: HSC-4 (human oral squamous cell carcinoma, tongue); assay: Cytotoxicity assay (MTT), HSC-4 cells; assay type: cell-based; conditions: for CC50: Homo sapiens, HSC-4, 48 h, MTT; for SI HSC-4: average CC50 of nonmalignant cells / CC50 toward HSC-4
Procedure: as §1

[5] = Cytotoxicity assay (MTT), HGF cells; assay type: cell-based; conditions: human, gingival fibroblasts (HGF), normal oral cells
Procedure: as §1

[6] = Cytotoxicity assay (MTT), HPLF cells; assay type: cell-based; conditions: human, periodontal ligament fibroblasts (HPLF), normal oral cells
Procedure: as §1

[7] = Cytotoxicity assay (MTT), HPC cells; assay type: cell-based; conditions: human, pulp cells (HPC), normal oral cells
Procedure: as §1

[8] = system: Human oral squamous cell carcinoma cells; assay: Cytotoxicity assay (MTT), mean over four OSCC cell lines; assay type: cell-based; conditions: for CC50: Homo sapiens, mean of Ca9-22, HSC-2, HSC-3, HSC-4, read-out: (B) Mean CC50, human oral squamous cell carcinoma cells; for TS (D/B): mean CC50 normal cells / mean CC50 OSCC cells; for PSE (D/B^2) × 100: potency selectivity expression, expressed as a percentage
Procedure: as §1

[9] = Cytotoxicity assay (MTT), mean over three normal oral cells; assay type: cell-based; conditions: human; mean of HGF, HPLF, HPC; read-out: (D) Mean CC50, human normal oral cells
Procedure: as §1

hCA I = hCA I (Homo sapiens, UniProt P00915); assay: Carbonic anhydrase inhibition assay (esterase activity, 348 nm), hCA I; assay type: biochemical; conditions: for Ki: Lineweaver-Burk, three concentrations; for IC50: from activity (%) versus compound plots; for times more potent than AZA toward hCA I: in terms of IC50 values
hCA II = hCA II (Homo sapiens, UniProt P00918); assay: Carbonic anhydrase inhibition assay (esterase activity, 348 nm), hCA II; assay type: biochemical; conditions: for Ki: Lineweaver-Burk, three concentrations; for IC50: from activity (%) versus compound plots; for times more potent than AZA toward hCA II: in terms of IC50 values

hCA I, sequence (P00915 whole entry): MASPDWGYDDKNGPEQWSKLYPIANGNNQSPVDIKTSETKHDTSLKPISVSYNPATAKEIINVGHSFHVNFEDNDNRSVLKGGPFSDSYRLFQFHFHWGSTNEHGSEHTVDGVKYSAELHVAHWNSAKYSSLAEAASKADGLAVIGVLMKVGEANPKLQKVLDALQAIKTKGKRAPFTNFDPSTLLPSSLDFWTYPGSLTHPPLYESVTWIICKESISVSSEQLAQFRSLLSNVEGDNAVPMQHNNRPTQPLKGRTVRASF

| SMILES | TS (C/A) [1] | CC50 [1] [µM] | SI Ca9-22 [1] | CC50 [2] [µM] | SI HSC-2 [2] | CC50 [3] [µM] | SI HSC-3 [3] | CC50 [4] [µM] | CC50 at 48 h [5] [µM] | CC50 at 48 h [6] [µM] | CC50 at 48 h [7] [µM] | CC50 [8] [µM] | TS (D/B) [8] | PSE (D/B^2) × 100 [8] | CC50 at 48 h [9] [µM] | times of potency versus 5-FU toward Ca9-22 [1] | SI HSC-4 [4] | Ki (hCA I) [µM] | IC50 (hCA I) [µM] | times more potent than AZA toward hCA I (hCA I) | other results |
| --- | --- | --- | --- | --- | --- | --- | --- | --- | --- | --- | --- | --- | --- | --- | --- | --- | --- | --- | --- | --- | --- |
| O=c1[nH]cc(F)c(=O)[nH]1 [Compound 5-FU, 5-Fluorouracil, reference compound] | >10.0 | 100 | >167.3 | 45.7 | >16.1 | 27.3 | >71.5 | 17.3 | > 1000 | 208 | > 1000 | 47.6 | >15.5 | >32.6 | > 736 |  |  |  |  |  |  |
| NS(=O)(=O)c1ccc(N2N=C(c3ccccc3)CC2c2ccc(O)cc2)cc1 (stereo not shown) [Compound 8, 4-[5-(4-Hydroxyphenyl)-3-phenyl-4,5-dihydro-1H-pyrazol-1-yl]benzenesulfonamide] | 2.0 | 42 | 1.8 | 67 | 1.1 | 66.3 | 1.1 | 50.3 | 85 | 54.3 | 88.3 | 56.4 | 1.3 | 2.3 | 75.9 | 2.4 | 1.5 | 0.00484 ± 0.00078 | 0.00481 | 39.5 | Ki (hCA II): 0.00459 ± 0.00083 µM; IC50 (hCA II): 0.00495 µM; times more potent than AZA toward hCA II (hCA II): 40.3 |
| Cc1ccc(C2=NN(c3ccc(S(N)(=O)=O)cc3)C(c3ccc(O)cc3)C2)cc1 (stereo not shown) [Compound 9, 4-[5-(4-Hydroxyphenyl)-3-(4-methylphenyl)-4,5-dihydro-1H-pyrazol-1-yl]benzene sulfonamide] | 1.7 | 25.7 | 1.7 | 33.3 | 1.3 | 39.7 | 1.1 | 31.7 | 43.7 | 39.3 | 49.7 | 32.6 | 1.4 | 4.2 | 44.2 | 3.9 | 1.4 | 0.00459 ± 0.00125 | 0.00529 | 35.9 | times of potency versus 5-FU toward HSC-2 [2]: 1.4; Ki (hCA II): 0.00748 ± 0.00252 µM; IC50 (hCA II): 0.00563 µM; times more potent than AZA toward hCA II (hCA II): 35.5 |
| COc1ccc(C2=NN(c3ccc(S(N)(=O)=O)cc3)C(c3ccc(O)cc3)C2)cc1 (stereo not shown) [Compound 10, 4-[5-(4-Hydroxyphenyl)-3-(4-methoxyphenyl)-4,5-dihydro-1H-pyrazol-1-yl] benzenesulfonamide] | 1.3 | 37.7 | 1.3 | 65.3 | 0.8 | 47 | 1.1 | 40.7 | 47.3 | 44 | 61 | 47.7 | 1.1 | 2.2 | 50.8 | 2.7 | 1.2 | 0.00399 ± 0.0009 | 0.00484 | 39.3 | Ki (hCA II): 0.00507 ± 0.00169 µM; IC50 (hCA II): 0.00537 µM; times more potent than AZA toward hCA II (hCA II): 37.1 |
| NS(=O)(=O)c1ccc(N2N=C(c3ccc(F)cc3)CC2c2ccc(O)cc2)cc1 (stereo not shown) [Compound 11, 4-[5-(4-Hydroxyphenyl)-3-(4-fluorophenyl)-4,5-dihydro-1H-pyrazol-1-yl] benzenesulfonamide] | 1.8 | 36.3 | 1.6 | 46.3 | 1.3 | 43.3 | 1.4 | 39.3 | 66.7 | 43 | 67.7 | 41.3 | 1.4 | 3.5 | 59.1 | 2.8 | 1.5 | 0.0051 ± 0.00117 | 0.00568 | 33.5 | times of potency versus 5-FU toward HSC-2 [2]: 1.0; Ki (hCA II): 0.00453 ± 0.00075 µM; IC50 (hCA II): 0.00572 µM; times more potent than AZA toward hCA II (hCA II): 34.9 |
| NS(=O)(=O)c1ccc(N2N=C(c3ccc(Cl)cc3)CC2c2ccc(O)cc2)cc1 (stereo not shown) [Compound 12, 4-[5-(4-Hydroxyphenyl)-3-(4-chlorophenyl)-4,5-dihydro-1H-pyrazol-1-yl] benzenesulfonamide] | 2.0 | 22.3 | 2.0 | 39 | 1.1 | 38.3 | 1.2 | 31.3 | 44 | 38.3 | 50.7 | 32.8 | 1.4 | 4.1 | 44.3 | 4.5 | 1.4 | 0.00449 ± 0.00067 | 0.00491 | 38.7 | times of potency versus 5-FU toward HSC-2 [2]: 1.2; Ki (hCA II): 0.00406 ± 0.0006 µM; IC50 (hCA II): 0.00425 µM; times more potent than AZA toward hCA II (hCA II): 46.9 |
